Experimental data taken from paper PMC10909431 (Journal of Peptide Science, 2023).
Like-named read-outs stand apart in the source and are kept apart here. Each block holds one compound with its values, some of them ahead of it. Numbered stars: 1 amine (or outer) side, 2 acyl side, 3 side chain; on linkers, the order of the positions; unused ones are H or OH. Bridge positions count the residues as written; N and C are the ends. Square brackets hold non-standard residues; d marks the D form. Triazole bridges read from a SMILES are 1,4-linked. Ends that are not written are not given here. Peptide text beside a SMILES is read from it. Orn(N3) = [N-]=[N+]=NCCC[C@H](N)C(=O)O; S5 = C=CCCC[C@](C)(N)C(=O)O; X1 = c1c(C[*:2])nnn1CC[*:1]; Pra = C#CC[C@H](N)C(=O)O

What was measured:
IR‐A = target: T1, IR‐A (Homo sapiens, UniProt P06213); assay: Receptor-binding: competition with [125I]-monoiodotyrosyl-TyrA14-insulin for IR-A in IM-9 cell membranes; settings: cell membranes of human IM-9 lymphocytes, each curve in duplicate, Kd from at least three binding curves, ± S.D., SD
T1 construct: for IR‐A in cell membranes of human IM‐9 lymphocytes (ATCC); host or cells: human IM-9 lymphocytes (cell membranes)
T1 sequence (P06213 28-1370 isoform P06213-2 limits assumed): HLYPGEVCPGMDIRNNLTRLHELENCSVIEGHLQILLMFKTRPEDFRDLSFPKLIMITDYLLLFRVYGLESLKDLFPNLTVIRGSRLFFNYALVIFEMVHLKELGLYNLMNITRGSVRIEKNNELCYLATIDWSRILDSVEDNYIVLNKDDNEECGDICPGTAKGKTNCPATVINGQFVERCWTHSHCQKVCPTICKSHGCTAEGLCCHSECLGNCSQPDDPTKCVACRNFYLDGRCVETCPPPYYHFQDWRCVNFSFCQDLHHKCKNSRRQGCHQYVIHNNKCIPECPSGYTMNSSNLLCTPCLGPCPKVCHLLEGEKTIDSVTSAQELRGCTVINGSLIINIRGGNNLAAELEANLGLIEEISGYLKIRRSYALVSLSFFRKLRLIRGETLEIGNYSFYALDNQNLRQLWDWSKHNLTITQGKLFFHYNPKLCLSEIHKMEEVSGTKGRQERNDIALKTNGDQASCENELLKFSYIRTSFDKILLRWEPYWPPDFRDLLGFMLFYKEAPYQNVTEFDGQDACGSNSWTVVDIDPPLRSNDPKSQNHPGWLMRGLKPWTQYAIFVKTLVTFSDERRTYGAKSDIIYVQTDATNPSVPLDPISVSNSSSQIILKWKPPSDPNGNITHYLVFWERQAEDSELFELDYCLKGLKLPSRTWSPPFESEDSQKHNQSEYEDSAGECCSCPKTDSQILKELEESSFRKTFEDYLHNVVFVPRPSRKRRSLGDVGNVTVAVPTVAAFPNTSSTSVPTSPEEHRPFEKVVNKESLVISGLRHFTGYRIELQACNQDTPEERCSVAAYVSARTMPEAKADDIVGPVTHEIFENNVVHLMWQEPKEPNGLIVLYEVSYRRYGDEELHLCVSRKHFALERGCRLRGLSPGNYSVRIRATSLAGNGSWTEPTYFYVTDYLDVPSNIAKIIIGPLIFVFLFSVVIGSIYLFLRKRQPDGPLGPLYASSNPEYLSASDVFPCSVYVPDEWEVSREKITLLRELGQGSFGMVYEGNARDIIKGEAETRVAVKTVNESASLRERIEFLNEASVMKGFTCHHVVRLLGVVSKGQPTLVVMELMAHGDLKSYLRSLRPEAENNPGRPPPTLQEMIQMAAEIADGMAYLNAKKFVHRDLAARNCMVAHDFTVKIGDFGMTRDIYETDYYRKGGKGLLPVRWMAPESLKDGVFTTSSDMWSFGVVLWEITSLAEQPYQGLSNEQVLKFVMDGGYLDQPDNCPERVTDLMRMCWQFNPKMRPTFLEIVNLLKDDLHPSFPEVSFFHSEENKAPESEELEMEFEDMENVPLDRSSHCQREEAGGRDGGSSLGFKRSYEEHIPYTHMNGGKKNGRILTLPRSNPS
T1 sequence (P06213 763-1382 partner limits assumed): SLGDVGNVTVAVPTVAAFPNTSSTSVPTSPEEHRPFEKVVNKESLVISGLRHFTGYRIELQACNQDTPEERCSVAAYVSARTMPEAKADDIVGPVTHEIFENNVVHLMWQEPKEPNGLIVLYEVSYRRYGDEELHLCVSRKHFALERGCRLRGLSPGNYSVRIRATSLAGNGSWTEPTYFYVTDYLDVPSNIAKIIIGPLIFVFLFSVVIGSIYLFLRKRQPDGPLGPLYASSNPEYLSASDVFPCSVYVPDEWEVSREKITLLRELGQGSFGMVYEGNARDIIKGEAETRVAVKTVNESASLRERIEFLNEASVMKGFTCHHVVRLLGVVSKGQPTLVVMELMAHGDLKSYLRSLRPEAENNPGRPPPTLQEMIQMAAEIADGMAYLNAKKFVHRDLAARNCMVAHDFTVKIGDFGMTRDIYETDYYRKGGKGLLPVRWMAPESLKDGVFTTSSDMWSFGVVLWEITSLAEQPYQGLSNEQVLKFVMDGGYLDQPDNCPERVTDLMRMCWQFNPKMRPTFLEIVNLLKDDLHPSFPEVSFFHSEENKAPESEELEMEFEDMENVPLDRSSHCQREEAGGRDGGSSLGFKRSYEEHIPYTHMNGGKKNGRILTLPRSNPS
Description: The binding curve of each analog was determined in duplicate, and the final dissociation constant (K d) was calculated from at least three binding curves.

IR [1] = settings: cited from earlier work
Description: (§1) Scientific teams from Novo Nordisk A/S and Antyra, Inc., used the technique of expressing libraries of peptide sequences on the surface of bacteriophage and, by testing their binding affinities, discovered a number of peptides that bound very efficiently to IR while activating or inhibiting it.[19], [20]

[2] = test system: insulin effect on plasma glucose; settings: cited from earlier work
Description: as §1, with “[20] […] One of these peptides was […] or S592, which bound only to bindi ...” for “[20]”

[3] = test system: insulin‐stimulated lipogenesis in cells; settings: cited from earlier work
Description: as §1, with “[20] […] One of these peptides was […] or S592, which bound only to bindi ...” for “[20]”

IR [4] = settings: cited from earlier work; for agonistic or antagonistic activities: peptides tested separately

Kd (IR‐A): 3.9 ± 1 nM
Compound: CC[C@H](C)[C@H](NC(=O)[C@H](CCC(N)=O)NC(=O)[C@H](C)NC(=O)[C@H](Cc1c[nH]c2ccccc12)NC(=O)[C@H](CCC(=O)O)NC(=O)[C@H](CCC(=O)O)NC(=O)[C@H](CCC(=O)O)NC(=O)[C@H](CC(C)C)NC(=O)[C@@H](N)CO)C(=O)N[C@@H](CCC(=O)O)C(=O)N[C@H]1CSSC[C@@H](C(=O)N2CCC[C@H]2C(=O)N[C@@H](CO)C(N)=O)NC(=O)CNC(=O)[C@H](CCCNC(=N)N)NC(=O)CNC(=O)[C@H](Cc2c[nH]c3ccccc23)NC(=O)[C@H](C(C)C)NC(=O)[C@H](CCC(=O)O)NC1=O [peptide 1] (H-SLEEEWAQIECEVWGRGCPS-NH2; disulfide 11-18)

Kd (IR‐A): 49 ± 6 nM
Compound: CC[C@H](C)[C@H](NC(=O)[C@H](CCC(N)=O)NC(=O)[C@H](C)NC(=O)[C@H](Cc1c[nH]c2ccccc12)NC(=O)[C@H](CCC(=O)O)NC(=O)[C@H](CCC(=O)O)NC(=O)[C@H](CCC(=O)O)NC(=O)[C@H](CC(C)C)NC(=O)[C@@H](N)CO)C(=O)N[C@@H](CCC(=O)O)C(=O)N[C@@]1(C)CCCC=CCCC[C@@](C)(C(=O)N2CCC[C@H]2C(=O)N[C@@H](CO)C(N)=O)NC(=O)CNC(=O)[C@H](CCCNC(=N)N)NC(=O)CNC(=O)[C@H](Cc2c[nH]c3ccccc23)NC(=O)[C@H](C(C)C)NC(=O)[C@H](CCC(=O)O)NC1=O [peptide 2] (H-SLEEEWAQIE[S5]EVWGRG[S5]PS-NH2; staple 11-18)

Kd (IR‐A): 15 ± 3 nM
Compound: CC[C@H](C)[C@H](NC(=O)[C@H](CCC(N)=O)NC(=O)[C@H](C)NC(=O)[C@H](Cc1c[nH]c2ccccc12)NC(=O)[C@H](CCC(=O)O)NC(=O)[C@H](CCC(=O)O)NC(=O)[C@H](CCC(=O)O)NC(=O)[C@H](CC(C)C)NC(=O)[C@@H](N)CO)C(=O)N[C@@H](CCC(=O)O)C(=O)N[C@H]1CCCn2cc(nn2)C[C@@H](C(=O)N2CCC[C@H]2C(=O)N[C@@H](CO)C(N)=O)NC(=O)CNC(=O)[C@H](CCCNC(=N)N)NC(=O)CNC(=O)[C@H](Cc2c[nH]c3ccccc23)NC(=O)[C@H](C(C)C)NC(=O)[C@H](CCC(=O)O)NC1=O [peptide 3] (H-SLEEEWAQIE[Orn(N3)]EVWGRG[Pra]PS-NH2; triazole 11-18)

Kd (IR‐A): 25 ± 7 nM
Compound: CC[C@H](C)[C@H](NC(=O)[C@H](CCC(N)=O)NC(=O)[C@H](C)NC(=O)[C@H](Cc1c[nH]c2ccccc12)NC(=O)[C@H](CCC(=O)O)NC(=O)[C@H](CCC(=O)O)NC(=O)[C@H](CCC(=O)O)NC(=O)[C@H](CC(C)C)NC(=O)[C@@H](N)CO)C(=O)N[C@@H](CCC(=O)O)C(=O)N[C@H]1CSCCn2cc(nn2)CSC[C@@H](C(=O)N2CCC[C@H]2C(=O)N[C@@H](CO)C(N)=O)NC(=O)CNC(=O)[C@H](CCCNC(=N)N)NC(=O)CNC(=O)[C@H](Cc2c[nH]c3ccccc23)NC(=O)[C@H](C(C)C)NC(=O)[C@H](CCC(=O)O)NC1=O [peptide 4] (H-SLEEEWAQIECEVWGRGCPS-NH2; linker 11-18 via X1)

Kd (IR‐A): 75 ± 29 nM
Compound: CC[C@H](C)[C@H](NC(=O)[C@H](CCC(N)=O)NC(=O)[C@H](C)NC(=O)[C@H](Cc1c[nH]c2ccccc12)NC(=O)[C@H](CCC(=O)O)NC(=O)[C@H](CCC(=O)O)NC(=O)[C@H](CCC(=O)O)NC(=O)[C@H](CC(C)C)NC(=O)[C@@H](N)CO)C(=O)N[C@@H](CCC(=O)O)C(=O)N[C@H]1CSCCn2cc(nn2)COC[C@@H](C(=O)N2CCC[C@H]2C(=O)N[C@@H](CO)C(N)=O)NC(=O)CNC(=O)[C@H](CCCNC(=N)N)NC(=O)CNC(=O)[C@H](Cc2c[nH]c3ccccc23)NC(=O)[C@H](C(C)C)NC(=O)[C@H](CCC(=O)O)NC1=O [peptide 5] (H-SLEEEWAQIECEVWGRGSPS-NH2; linker 11-18 via X1)

Compound: #SLEEEWAQIE C EVYGR C PPSES‐amide (disulfide) [IM172N22, peptide representing the Site 2 part of IM459]
Kd (IR [1]; read-out: binding affinity): 3.1 nM

Compound: #SLEQEWaKIE C EVYGK C PPKKAyKWFERQLK‐amide (disulfide) [IM459, variant of S519 with several modifications, IR agonist]
ability to activate IR (IR [1]): retains the ability to activate IR (agonist)

Compound: GSLDESFYDWFERQLGGGSGGSSLEEEWAQIQ C EVWGRG C PSY (disulfide) [S961, Site 1–linker–Site 2 fusion peptide with free C-terminus, IR antagonist]
binding affinities for IR (IR [1]): native insulin‐like binding affinities
inhibition of the insulin effect on plasma glucose in mice [2]: fully inhibit
inhibition of insulin‐stimulated lipogenesis in cells [3]: fully inhibit

Compound: GSLDESFYDWFERQLGGGSGGSSLEEEWAQIQ C EVWGRG C PSY‐amide (disulfide) [S661, Site 1–linker–Site 2 fusion peptide with amidated C-terminus, IR antagonist]
binding affinities for IR (IR [1]): native insulin‐like binding affinities
inhibition of the insulin effect on plasma glucose in mice [2]: fully inhibit
inhibition of insulin‐stimulated lipogenesis in cells [3]: fully inhibit

Compound: GSLDESFYDWFERQLGGGSGGSSLEEEWAQIQSEVWGRGSPSY-NH2 [Cys → Ser in S661, S661 variant with cysteines mutated to serines, without the disulfide bridge]
change of antagonistic activity versus S661 (IR [4]; inhibition of insulin-stimulated IR phosphorylation in cells): eightfold decrease

Compound: GSLDESFYDWFERQLGKK [S371]
agonistic or antagonistic activities (IR [4]): did not detect any agonistic or antagonistic activities

Compound: SLEEEWAQ-NH2 [N-terminal segment peptide of the Site 2 mimetics, without the cyclized part]
Kd (IR [1]; read-out: binding affinity): 900 nM

Compound: SLEEEWAQIE C EVWGRG C PSY (disulfide) [S592]
activation of the receptor (IR [1]): does not activate the receptor
Kd (IR [1]; read-out: K d for binding to the IR): 1.7 nM

Compound: SLEEEWAQIQSEVWGRGSPSYC [Cys → Ser in S592, Site 2 peptide with Cys-to-Ser mutations produced by Brandt et al]
insulin signal remaining (IR [4]; 1 nM insulin, peptide at the concentration 100 nM): 50–60%
agonistic or antagonistic activities (IR [4]): did not detect any agonistic or antagonistic activities

Compound: SLEEEWAQVE C EVYGRG C PSGSLDESFYDWFERQLG (disulfide) [S519, Site 2–Site 1 fusion peptide, IR agonist]
agonism / antagonism of IR (IR [1]): did not show antagonistic effects and instead agonized IR
binding to IR (IR [1]): very high affinity
